Measurements as given in patent publication US9938261B2, “Heterocyclic compounds and methods of use thereof” (AMBIT BIOSCIENCES CORPORATION, priority 2011, dated 2018).
Counter-ions that a name gives are not always drawn.

target: CSF1R (Homo sapiens, UniProt P07333); experiment: HEK293 CSF1R phosphorylation MSD assay; type: cell-based; design: expressed in transfected cells; host or cells: HEK293; settings: 2 h compound, human M-CSF 50 ng/mL for 5 min; read-out: HEK293 pCSF1R M-CSF MSD:IC50
In short: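 HEK293 cells expressing CSF1R-FKBP were pretreated 2 h at 37° C with 9 half-log concentrations of compound (0.5% DMSO final), then stimulated 5 min with 50 ng/mL human M-CSF. Lysates captured on biotin-FK506 plates; phosphotyrosine detected by MSD electrochemiluminescence. IC50 versus DMSO, averaged from duplicate plates.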

CSF1R, sequence (P07333 20-972): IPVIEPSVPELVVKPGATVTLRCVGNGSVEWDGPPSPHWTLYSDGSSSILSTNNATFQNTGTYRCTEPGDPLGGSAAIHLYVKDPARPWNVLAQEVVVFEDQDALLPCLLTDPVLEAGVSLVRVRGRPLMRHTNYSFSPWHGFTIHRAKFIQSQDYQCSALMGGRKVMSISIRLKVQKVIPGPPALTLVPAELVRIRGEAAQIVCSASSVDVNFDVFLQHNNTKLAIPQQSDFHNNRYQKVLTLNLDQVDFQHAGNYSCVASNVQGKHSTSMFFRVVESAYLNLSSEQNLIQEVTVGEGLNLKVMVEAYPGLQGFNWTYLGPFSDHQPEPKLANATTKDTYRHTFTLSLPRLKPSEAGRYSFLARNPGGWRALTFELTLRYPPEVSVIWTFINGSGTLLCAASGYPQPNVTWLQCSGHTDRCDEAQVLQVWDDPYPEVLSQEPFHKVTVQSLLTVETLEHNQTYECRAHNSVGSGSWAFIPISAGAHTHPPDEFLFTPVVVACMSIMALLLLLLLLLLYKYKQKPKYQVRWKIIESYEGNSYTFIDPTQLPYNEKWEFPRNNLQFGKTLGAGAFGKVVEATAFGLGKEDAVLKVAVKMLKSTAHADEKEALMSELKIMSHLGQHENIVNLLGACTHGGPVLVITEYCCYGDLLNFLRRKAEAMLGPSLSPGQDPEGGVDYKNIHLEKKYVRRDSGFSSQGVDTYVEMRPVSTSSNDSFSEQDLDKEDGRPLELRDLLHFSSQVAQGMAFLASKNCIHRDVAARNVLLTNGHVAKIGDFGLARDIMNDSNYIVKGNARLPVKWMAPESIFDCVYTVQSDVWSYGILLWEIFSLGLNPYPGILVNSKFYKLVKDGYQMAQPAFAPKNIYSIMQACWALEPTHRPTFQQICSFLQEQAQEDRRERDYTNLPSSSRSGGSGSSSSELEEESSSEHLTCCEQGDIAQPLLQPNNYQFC

Row | IC50 [µM] | Compound
1 | ≤ 0.05 | O[C@@H]1CCCC[C@H]1Nc1nc2ccc(Cn3cnc4cc(-c5cccnc5)cnc43)cc2s1 [Example 40, (1R,2R)-2-((6-((6-(pyridin-3-yl)-3H-imidazo[4,5-b]pyridin-3-yl)methyl)benzo[d]thiazol-2-yl)amino)cyclohexanol]
2 | > 0.5 | O=C(O)c1cnc2c(c1)ncn2Cc1ccc2nc(N[C@@H]3CCCC[C@H]3O)sc2c1 [Example 81, 3-((2-(((1R,2R)-2-hydroxycyclohexyl)amino)benzo[d]thiazol-6-yl)methyl)-3H-imidazo[4,5-b]pyridine-6-carboxylic acid]
3 | ≤ 0.05 | O[C@@H]1CCCC[C@H]1Nc1nc2ccc(Cn3cnc4cc(Cl)cnc43)cc2s1 [Example 55, (1R,2R)-2-((6-((6-chloro-3H-imidazo[4,5-b]pyridin-3-yl)methyl)benzo[d]thiazol-2-yl)amino)cyclohexanol]
4 | ≤ 0.05 | CSCc1cnc2c(c1)ncn2Cc1ccc2nc(N[C@@H]3CCCC[C@H]3O)sc2c1 [Example 86, (1R,2R)-2-((6-((6-((methylthio)methyl)-3H-imidazo[4,5-b]pyridin-3-yl)methyl)benzo[d]thiazol-2-yl)amino)cyclohexanol]
5 | 0.05 to 0.2 | COc1cc2c(cc1Br)ncn2Cc1ccc2nc(N[C@@H]3CCCC[C@H]3O)sc2c1 [Example 41, (1R,2R)-2-((6-((5-bromo-6-methoxy-1H-benzo[d]imidazol-1-yl)methyl)benzo[d]thiazol-2-yl)amino)cyclohexanol]
6 | ≤ 0.05 | COc1cc2c(cc1-c1cnn(C)c1)ncn2Cc1ccc2nc(N[C@@H]3CCCC[C@H]3O)sc2c1 [Example 51, (1R,2R)-2-((6-((6-methoxy-5-(1-methyl-1H-pyrazol-4-yl)-1H-benzo[d]imidazol-1-yl)methyl)benzo[d]thiazol-2-yl)amino)cyclohexanol]
7 | ≤ 0.05 | CSc1cnc2c(c1)ncn2Cc1ccc2nc(N[C@@H]3CCCC[C@H]3O)sc2c1 [Example 85, (1R,2R)-2-((6-((6-(methylthio)-3H-imidazo[4,5-b]pyridin-3-yl)methyl)benzo[d]thiazol-2-yl)amino)cyclohexanol]
8 | 0.2 to 0.5 | OC[C@H](Nc1nc2ccc(Cn3cnc4cccnc43)cc2s1)C1CCCCC1 [Example 64, (R)-2-((6-((3H-imidazo[4,5-b]pyridin-3-yl)methyl)benzo[d]thiazol-2-yl)amino)-2-cyclohexylethanol]
9 | ≤ 0.05 | COc1cc2ncn(Cc3ccc4nc(NCC5CCCCC5)oc4c3)c2cc1OC [Example 35, N-(cyclohexylmethyl)-6-((5,6-dimethoxy-1H-benzo[d]imidazol-1-yl)methyl)benzo[d]oxazol-2-amine]
10 | > 0.5 | CNC(=O)c1cn(Cc2ccc3nc(N[C@@H]4CCCC[C@H]4O)sc3c2)cn1 [Example 37, 1-((2-(((1R,2R)-2-hydroxycyclohexyl)amino)benzo[d]thiazol-6-yl)methyl)-N-methyl-1H-imidazole-4-carboxamide]
11 | ≤ 0.05 | CCc1cnc2c(c1)ncn2Cc1ccc2nc(N[C@@H]3CCCC[C@H]3O)sc2c1 [Example 102, (1R,2R)-2-((6-((6-ethyl-3H-imidazo[4,5-b]pyridin-3-yl)methyl)benzo[d]thiazol-2-yl)amino)cyclohexanol]
12 | ≤ 0.05 | C#Cc1cnc2c(c1)ncn2Cc1ccc2nc(N[C@@H]3CCCC[C@H]3O)sc2c1 [Example 96, (1R,2R)-2-((6-((6-ethynyl-3H-imidazo[4,5-b]pyridin-3-yl)methyl)benzo[d]thiazol-2-yl)amino)cyclohexanol]
13 | ≤ 0.05 | COc1cc2ncn(Cc3ccc4nc(N[C@@H]5CCCC[C@H]5O)sc4c3)c2cc1C#N [Example 53, 1-((2-(((1R,2R)-2-hydroxycyclohexyl)amino)benzo[d]thiazol-6-yl)methyl)-5-methoxy-1H-benzo[d]imidazole-6-carbonitrile]
14 | 0.05 to 0.2 | CC(=O)Nc1cn(Cc2ccc3nc(N[C@@H]4CCCC[C@H]4O)sc3c2)cn1 [Example 101, N-(1-((2-(((1R,2R)-2-hydroxycyclohexyl)amino)benzo[d]thiazol-6-yl)methyl)-1H-imidazol-4-yl)acetamide]
15 | 0.05 to 0.2 | O[C@@H]1Cc2ccccc2[C@H]1Nc1nc2ccc(Cn3cnc4cccnc43)cc2o1 [Example 57, (1R,2R)-1-((6-((3H-imidazo[4,5-b]pyridin-3-yl)methyl)benzo[d]oxazol-2-yl)amino)-2,3-dihydro-1H-inden-2-ol]
16 | ≤ 0.05 | C=Cc1cnc2c(c1)ncn2Cc1ccc2nc(N[C@@H]3CCCC[C@H]3O)sc2c1 [Example 98, (1R,2R)-2-((6-((6-vinyl-3H-imidazo[4,5-b]pyridin-3-yl)methyl)benzo[d]thiazol-2-yl)amino)cyclohexanol]
17 | 0.05 to 0.2 | O[C@@H]1CCCC[C@H]1Nc1nc2ccc(Cn3cnc4cncnc43)cc2s1 [Example 48, (1R,2R)-2-((6-((9H-purin-9-yl)methyl)benzo[d]thiazol-2-yl)amino)cyclohexanol]
18 | ≤ 0.05 | O[C@@H]1CCCC[C@H]1Nc1nc2ccc(Cn3cnc4cc(Br)cnc43)cc2o1 [Example 61, (1R,2R)-2-((6-((6-bromo-3H-imidazo[4,5-b]pyridin-3-yl)methyl)benzo[d]oxazol-2-yl)amino)cyclohexanol]
19 | 0.05 to 0.2 | CS(=O)(=O)c1cnc2c(c1)ncn2Cc1ccc2nc(N[C@@H]3CCCC[C@H]3O)sc2c1 [Example 74, (1R,2R)-2-((6-((6-(methylsulfonyl)-3H-imidazo[4,5-b]pyridin-3-yl)methyl)benzo[d]thiazol-2-yl)amino)cyclohexanol]
20 | 0.05 to 0.2 | COc1cc2ncn(Cc3ccc4nc(N[C@@H]5CCCC[C@H]5O)oc4c3)c2cc1OC [Example 34, (1R,2R)-2-((6-((5,6-dimethoxy-1H-benzo[d]imidazol-1-yl)methyl)benzo[d]oxazol-2-yl)amino)cyclohexanol]
21 | 0.05 to 0.2 | COc1ccn2c(Cc3ccc4nc(N[C@@H]5CCCC[C@H]5O)sc4c3)cnc2c1 [Example 44, (1R,2R)-2-((6-((7-methoxyimidazo[1,2-a]pyridin-3-yl)methyl)benzo[d]thiazol-2-yl)amino)cyclohexanol]
22 | 0.05 to 0.2 | OC1(CNc2nc3ccc(Cn4cnc5cccnc54)cc3s2)CCCCC1 [Example 75, 1-(((6-((3H-imidazo[4,5-b]pyridin-3-yl)methyl)benzo[d]thiazol-2-yl)amino)methyl)cyclohexanol]
23 | 0.05 to 0.2 | Cn1cc(-c2cn(Cc3ccc4nc(N[C@@H]5CCCC[C@H]5O)sc4c3)cn2)cn1 [Example 36, (1R,2R)-2-((6-((4-(1-methyl-1H-pyrazol-4-yl)-1H-imidazol-1-yl)methyl)benzo[d]thiazol-2-yl)amino)cyclohexanol]
24 | ≤ 0.05 | N#Cc1ccc2ncn(Cc3ccc4nc(N[C@@H]5CCCC[C@H]5O)sc4c3)c2n1 [Example 87, 3-((2-(((1R,2R)-2-hydroxycyclohexyl)amino)benzo[d]thiazol-6-yl)methyl)-3H-imidazo[4,5-b]pyridine-5-carbonitrile]

Row | Compound | IC50 [µM]
25 | either (1S,2R)-2-((6-((3H-imidazo[4,5-b]pyridin-3-yl)methyl)benzo[d]thiazol-2-yl)amino)-1-methylcyclohexanol or (1R,2R)-2-((6-((3H-imidazo[4,5-b]pyridin-3-yl)methyl)benzo[d]thiazol-2-yl)amino)-1-methylcyclohexanol [Example 59] | 0.05 to 0.2

same assay, conditions: HEK293 cells, M-CSF stimulated CSF1R phosphorylation, MSD; read-out: HEK293 pCSF1R M-CSF MSD:IC50

Row | IC50 [µM] | Compound
26 | ≤ 0.05 | N#CCOc1ccc2c(c1)ncn2Cc1ccc2nc(N[C@@H]3CCCC[C@H]3O)sc2c1 [Example 196, 2-((1-((2-(((1R,2R)-2-hydroxycyclohexyl)amino)benzo[d]thiazol-6-yl)methyl)-1H-benzo[d]imidazol-5-yl)oxy)acetonitrile]
27 | 0.05 to 0.2 | C=CCOc1ccn2c(Cc3ccc4nc(N[C@@H]5CCCC[C@H]5O)sc4c3)cnc2c1 [Example 217, (1R,2R)-2-((6-((7-(allyloxy)imidazo[1,2-a]pyridin-3-yl)methyl)benzo[d]thiazol-2-yl)amino)cyclohexanol]
28 | 0.2 to 0.5 | OC1CCN(c2ccn3c(Cc4ccc5nc(N[C@@H]6CCCC[C@H]6O)sc5c4)cnc3c2)CC1 [Example 199, 1-(3-((2-(((1R,2R)-2-hydroxycyclohexyl)amino)benzo[d]thiazol-6-yl)methyl)imidazo[1,2-a]pyridin-7-yl)piperidin-4-ol]
29 | > 0.5 | Nc1nccn(Cc2ccc3nc(N[C@@H]4CCCC[C@H]4O)sc3c2)c1=O [Example 220, 3-amino-1-((2-(((1R,2R)-2-hydroxycyclohexyl)amino)benzo[d]thiazol-6-yl)methyl)pyrazin-2(1H)-one acetate salt]
30 | > 0.5 | CS(=O)(=O)c1ccc2ncn(Cc3ccc4nc(N[C@@H]5CCCC[C@H]5O)sc4c3)c2n1 [Example 106, (1R,2R)-2-((6-((5-(methylsulfonyl)-3H-imidazo[4,5-b]pyridin-3-yl)methyl)benzo[d]thiazol-2-yl)amino)cyclohexanol]
31 | 0.05 to 0.2 | N#Cc1cc(F)c2c(c1)ncn2Cc1ccc2nc(N[C@@H]3CCCC[C@H]3O)sc2c1 [Example 206, 7-fluoro-1-((2-(((1R,2R)-2-hydroxycyclohexyl)amino)benzo[d]thiazol-6-yl)methyl)-1H-benzo[d]imidazole-5-carbonitrile]
32 | 0.2 to 0.5 | Fc1cnc2c(c1)ncn2Cc1ccc2nc(N[C@@H]3CCCC[C@H]3Cl)sc2c1 [Example 198, N-((1R,2R)-2-chlorocyclohexyl)-6-((6-fluoro-3H-imidazo[4,5-b]pyridin-3-yl)methyl)benzo[d]thiazol-2-amine]
33 | 0.2 to 0.5 | O=C1CCCCN1c1ccc2c(c1)ncn2Cc1ccc2nc(N[C@@H]3CCCC[C@H]3O)sc2c1 [Example 210, 1-(1-((2-(((1R,2R)-2-hydroxycyclohexyl)amino)benzo[d]thiazol-6-yl)methyl)-1H-benzo[d]imidazol-5-yl)piperidin-2-one]
34 | 0.05 to 0.2 | O[C@@H]1CCCC[C@H]1Nc1nc2ccc(Cn3cnc4ccc(Br)cc43)cc2s1 [Example 107, (1R,2R)-2-((6-((6-bromo-1H-benzo[d]imidazol-1-yl)methyl)benzo[d]thiazol-2-yl)amino)cyclohexanol]
